“And” between values parts separate entries of the source, which are not always exact repeats. Equal entries are not always repeated. “Also recorded” adds a separate entry of the source. Where two headings read alike, the source gives them in different places. One block for each compound: values may come before it.
What was measured:
[1] = tested on: estrogen-responsive alkaline phosphatase in Ishikawa cells; test: Induction of estrogen-responsive alkaline phosphatase (AP) in Ishikawa cells; conditions: 96 h; for EC50: Homo sapiens, Ishikawa
Experimental: Ishikawa cells (5×10^4 cells/well) were pre-incubated in 96 well plates in estrogen-free medium for 24 h. Test samples dissolved in DMSO, were added at different concentrations and the DMSO concentration was kept lower than 0.1%. […] Plates were incubated at 37°C for 96 h. […] The maximum slope of the kinetic curve for every experiment well was calculated.

ERα [2] = molecular target: T1, ERα (Homo sapiens, UniProt P03372); test: Pulsed ultrafiltration LC-MS screening for ERα ligands; format: binding; parameters: purchased Invitrogen (Grand Island, NY); conditions: crude MeOH extract 150 µg/ml, 1 h room temperature, denatured ER control
T1 sequence (P03372 1-595): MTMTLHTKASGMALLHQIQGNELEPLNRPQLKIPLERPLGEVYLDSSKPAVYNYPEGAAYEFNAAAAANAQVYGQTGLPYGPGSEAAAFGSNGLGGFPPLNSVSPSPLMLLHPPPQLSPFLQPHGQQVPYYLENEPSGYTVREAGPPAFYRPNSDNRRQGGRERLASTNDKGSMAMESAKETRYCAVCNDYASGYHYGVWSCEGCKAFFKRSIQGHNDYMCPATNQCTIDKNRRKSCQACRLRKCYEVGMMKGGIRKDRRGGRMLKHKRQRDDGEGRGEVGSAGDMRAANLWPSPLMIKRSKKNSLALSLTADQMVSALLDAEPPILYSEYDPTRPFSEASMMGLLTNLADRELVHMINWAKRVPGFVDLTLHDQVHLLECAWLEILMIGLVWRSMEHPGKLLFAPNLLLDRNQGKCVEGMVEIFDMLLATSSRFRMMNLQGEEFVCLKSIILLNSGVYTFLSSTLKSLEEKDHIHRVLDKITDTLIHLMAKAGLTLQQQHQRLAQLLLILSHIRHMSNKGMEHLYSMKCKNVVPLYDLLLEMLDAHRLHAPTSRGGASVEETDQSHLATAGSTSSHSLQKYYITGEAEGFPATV
Experimental: A screening assay based on ultrafiltration mass spectrometry was used to identify the ligands of ER present in licorice crude extracts. Briefly, 150 µg/ml of the methanol crude extract was incubated for 1 h at room temperature with 50 pmol of ERα or ERβ in binding buffer consisting of 50 mM Tris-HCl (pH 7.5), 10% glycerol, 50 mM KCl, and 1 mM ethylenediaminetetraacetic acid (EDTA) in a total volume of 50 µL. Identical control incubations in which denatured ER was substituted for active ER was used to correct for nonspecific binding of compounds to the ultrafiltration membrane and holder. After incubation, each mixture was filtered through a Microcon (Millipore, Bedford, MA) YM-30 centrifugal filter containing a regenerated cellulose ultrafiltration membrane with a 30000 MW cutoff and washed three times with 200 µL aliquots of ammonium acetate buffer (pH 7.5) at 4°C to remove the unbound compounds. The bound ligands were released by adding 400 µL of methanol/water (90∶10; v/v) followed by centrifugation at 10000×g for 10 min. […] Aliquots (10 µL) were analyzed using LC-MS, which consisted of a reverse phase separation on a Shimadzu (Kyoto, Japan) Shim-Pack XR-ODS III C18 (1.6 µm, 2.0 mm ×50 mm) column and mass spectrometric analysis on a Shimadzu LCMS- IT-TOF mass spectrometer. […]

ERα [3] = molecular target: T1, ERα
Experimental: (§1) To correct for non-specific binding, a control containing all the added components except for the hot mix was considered. The incubation was carried out at room temperature for 2 h before 100 µL of 50% hydroxyapatite slurry (HAPS) was added. The tubes were incubated on ice for 15 min with vortexing every 5 min. The appropriate ER wash buffer was added (1 mL), and the tubes were vortexed before centrifuging at 10000×g for 5 min. The supernatant was discarded, and this wash step was repeated three times. The HAPS pellet containing the ligand-receptor complex was re-suspended in 200 µL of ethanol and transferred to scintillation vials. An additional 200 µL of ethanol was used to rinse the centrifuge tube.

[4] = tested on: estrogen responsive element (ERE)-luciferase in MCF-7 cells; test: ERE-luciferase induction in MCF-7 cells; format: cell-based; conditions: 24 h; for ERE-luciferase induction in MCF-7 cells (in words): isolated compounds tested at 0.1 µM and 1 µM
Experimental: The Dual-Luciferase Reporter Assay System protocol from Promega (Madison, WI) was used to evaluate the activation of ERs through interaction with ERE at the promoter of estrogen responsive genes, resulting in the expression of the fused luciferase reporter. Briefly, MCF-7 cells grown in phenol-red free medium for 48 h, were trypsinized and re-suspended in serum-free medium at 1×10^7 cells/mL followed by a 10 min incubation at room temperature with pERE (3 µg/mL) obtained from Dr. V. C. Jordan, Northwestern University, and pRL-TK (Promega) (1 µg/mL) in a 4 mm gap cuvette before electroporation at 950 µF and 250 V using the Gene Pulser Xcell (BioRad Laboratories, Hercules, CA). Transfected cells were diluted in serum containing medium and plated in 24-well plates (2×10^5 cells/well). After 24 h, the cells were washed with PBS and treated with two concentrations of the crude extracts (2 µg/mL and 10 µg/mL) and two concentrations of the isolated compounds (0.1 µM and 1 µM), for an additional 24 h. […] Cell lysates (20 µL) were placed in white Costar 96-well plates, before the injection of Luciferase Assay reagent (100 µL) followed by a 12 s read by a FLUOstar OPTIMA (BMG Lab Tech, Offenburg, Germany). To quench the firefly luciferase expression and activation of the renilla expression, Stop & Glo reagent (100 µL) was injected followed by a 12 s read. In order to exclude the errors in transfection efficiency, average read out of the luciferase activity was normalized to the average associated pRL-TK read outs (renilla activity). The results were converted into fold induction by normalizing to DMSO.

Tff1 mRNA in T47D cells = test: Tff1 mRNA induction in T47D cells (qRT-PCR); format: cell-based; conditions: 8-PN 100 nM, LigF 5 µM, LigC 5 µM, 6 h, relative to DMSO
Experimental: Quantitative real-time polymerase chain reaction (qRT-PCR) was used to examine the modulation of the Tff1 induction following treatment of T47D cells with the extracts and the related compounds. Experiments were performed four independent times in triplicates. T47D cells (4×10^4 cells/mL) were preincubated in estrogen-free media for 72 h. […] Total RNA was isolated using the TRIzol Plus RNA purification kit (Invitrogen) and quantitated by UV analysis at 260 nm. cDNA synthesis was performed using qScript cDNA synthesis kit (Quanta Biosceiences) in a total volume of […], containing 4 µL qScript reaction mixture (5X), 1 µL qScript RT, 10 µL nuclease-free water, and 5 µL of RNA sample. The reaction was carried out for 5 min at 22°C, followed by 42°C for 30 min and a 5 min incubation step at 85°C. The PCR and subsequent analyses were performed using the ABI StepOne Plus RT-PCR system (Applied Biosystems). Quantitation was performed using the TaqMan technology of Applied Biosystems. Tff1 was evaluated using a predeveloped gene expression primer/probe set (Applied Biosystems' Assay on Demand). Briefly, the PCR reaction mixture was prepared in a total volume of 20 µL, containing 1 µL 20X TagMan Gene Expression Assay, 10 µL 2X TaqMan Gene Expression Master Mix, 4 µL cDNA template, and 5 µL RNase-free water. The reaction mixture was incubated at 50°C for 2 min followed by 10 min at 95°C. Polymerase chain reactions were performed in triplicate and consisted of 40 cycles with 15 s denaturing step at 95°C and 1 min annealing/extending step at 60°C each. The fluorescence signal was measured during the last 30 s of the annealing/extension phase. Following analysis, a fluorescence threshold value was set and threshold cycle (Ct) values were determined. […] The final results were expressed as a fold induction, where the levels of Tff1 observed in the DMSO-treated samples was defined as one.

ERα [5] = molecular target: T1, ERα; test: biochemical
Experimental: as §1

human recombinant ERβ [6] = molecular target: T2, human recombinant ERβ (Homo sapiens, UniProt Q92731); test: biochemical
T2 sequence (Q92731 whole entry): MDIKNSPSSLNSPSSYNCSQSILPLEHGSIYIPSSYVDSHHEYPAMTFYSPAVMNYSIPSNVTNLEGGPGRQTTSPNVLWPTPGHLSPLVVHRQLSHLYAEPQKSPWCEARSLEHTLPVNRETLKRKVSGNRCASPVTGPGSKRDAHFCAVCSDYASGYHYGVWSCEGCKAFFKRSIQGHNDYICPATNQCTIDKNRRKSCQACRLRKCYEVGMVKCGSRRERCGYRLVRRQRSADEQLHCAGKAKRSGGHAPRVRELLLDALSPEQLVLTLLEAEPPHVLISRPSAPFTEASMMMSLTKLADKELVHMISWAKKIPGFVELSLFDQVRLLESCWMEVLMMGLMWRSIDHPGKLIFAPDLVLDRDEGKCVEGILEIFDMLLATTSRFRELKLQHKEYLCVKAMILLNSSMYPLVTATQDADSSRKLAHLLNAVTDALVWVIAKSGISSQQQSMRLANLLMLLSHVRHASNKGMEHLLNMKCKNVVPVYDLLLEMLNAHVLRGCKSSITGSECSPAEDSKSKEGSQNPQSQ
Experimental: as §1

[7] = Isomerization of isoliquiritigenin to liquiritigenin under bioassay conditions (LC-MS/LC-UV); format: physicochemical
Experimental: To evaluate this conversion and better define the compounds responsible for the observed estrogenic activity, LC-MS monitoring of the isomerization of these active principles in the cell-based assays was performed in parallel to every bioassay. One set of plates was considered for time 0, when there was no treatment and another set was considered for the final harvesting day for every experimental condition. The media exposed to cells were collected and extracted by adding sodium acetate buffer (100 mM, pH 5), followed by liquid-liquid extraction by water-saturated ethyl acetate.

Ishikawa cells = test: Cytotoxicity in cell culture assays; format: cell-based; conditions: AP assay, reduction in the estrogenic response
From the text: The Ishikawa cell line was provided by Dr. R. B. Hochberg (Yale University, New Haven, CT) and was maintained in Dulbecco's Modified Eagle Medium (DMEM/F12) containing 1% sodium pyruvate, 1% nonessential amino acids (NEAA), 1% glutamax-1, 0.05% insulin, and 10% heat-inactivated FBS [32], [33], [34]. […] Two days before treating the cells, the medium was replaced with phenol red-free DMEM/F12 medium containing charcoal/dextran-stripped FBS and supplements. […] However, alkaline phosphatase was not inducible in ECC1 cells obtained from ATCC. Despite this controversy, we will keep the conventional name, Ishikawa, for this cell line throughout this paper. The MCF-7 cell line was purchased from ATCC. […] Two days prior to treating the cells, the medium was replaced with phenol red-free RPMI 1640 medium containing charcoal/dextran-stripped FBS with acetone-washed activated charcoal (100mg/mL) at 4°C for 30 min and centrifuged at 4000 rpm for 15 min at 4°C. This step was repeated in triplicate. Extracts and compounds were not toxic to cells at the applied concentrations, under these experimental conditions. DMSO concentrations for all cell culture assays were below 0.1%.

human recombinant ERβ [8] = molecular target: T2, human recombinant ERβ; parameters: purchased Invitrogen (Grand Island, NY); method as in J. Agric. Food Chem. 2005, 53, 6246–6253; conditions: read-out: IC50 ERβ; isolated compounds; ref J. Agric. Food Chem. 2005, 53, 6246–6253; cited from earlier work
[9] = read-out: AP induction Ishikawa cells EC50

Compound: O=C1C[C@@H](c2ccc(O)cc2)Oc2cc(O)ccc21 [LigF, liquiritigenin]
EC50 [1, 9]: 3400 ± 400 nM
Maximum AP fold induction Ishikawa cells ([1]; maximum efficacy): 83 fold and 83.1±3.4 fold
binding to ERα in PUF-MS screening (ERα [2]): bound to ERα and ERβ
IC50 ERα (ERα [3]): very weak affinity for ERα
fold induction at 0.1 µM ([4]; Homo sapiens, MCF7, isolated compounds at 100 nM, DMSO set to 1): 2.1 ± 0.4
ERE-luciferase induction in MCF-7 cells (in words) [4]: showed induction of ERE-luciferase
Tff1 mRNA induction in T47D cells (Tff1 mRNA in T47D cells): lower than that of 8-PN (0.1 µM), but the difference was not significant
IC50 (ERα [5]): > 200 µM

EC50 [1, 9]: 2700 ± 200 nM
IC50 (human recombinant ERβ [6]): 7.8 ± 0.1 µM
IC50 (ERα [5]): 16 ± 1 µM
Compound: O=C(/C=C/c1ccc(O)cc1)c1ccc(O)cc1O [LigC, isoliquiritigenin]
Tff1 mRNA induction in T47D cells (Tff1 mRNA in T47D cells): induced Tff1, significantly
isomerization of LigC to LigF ([7]; ER binding buffer, 2 h at room temperature, LC-UV): did not show any isomerization of LigC to LigF; also recorded: did not show a conversion of LigC to LigF
isomerization of LigC to LigF ([7]; cell media of AP assay, 96 h with Ishikawa cells at 37°C, LC-MS): significant reduction in the LigC content and a corresponding increase in LigF formation; also recorded: mostly converted to LigF
isomerization of LigC to LigF ([7]; cell media of mRNA induction assay, 6 h with T47D cells at 37°C, LC-MS): did not show a significant formation of LigF from LigC; also recorded: the conversion was limited
concentrations with cytotoxic effects (Ishikawa cells): above 7.5 µM

EC50 ([1]; read-out: AP induction Ishikawa cells EC50, as given in text, 96 h): 6.6 nM
EC50 ([1]; read-out: AP induction Ishikawa cells EC50, isolated compounds, 96 h, n = 9): 6.65 ± 1.4 nM
Compound: CC(C)=CCc1c(O)cc(O)c2c1O[C@H](c1ccc(O)cc1)CC2=O [8-PN, 8-prenylnaringenin]
ERE-luciferase induction in MCF-7 cells (in words) [4]: showed induction of ERE-luciferase
IC50 (human recombinant ERβ [8]): 1700 ± 100 nM

EC50 [1, 9]: 0.19 ± 0.05 nM
Compound: C[C@]12CC[C@@H]3c4ccc(O)cc4CC[C@H]3[C@@H]1CC[C@@H]2O [17β-estradiol, reference compound]

Compound: COc1cc(O)c(CC=C(C)C)c(O)c1C(=O)/C=C/c1ccc(O)cc1 [XH, xanthohumol]
AP induction Ishikawa cells EC50 ([1]; isolated compounds, n = 9): inactive
ERE-luciferase induction in MCF-7 cells (in words) [4]: did not show any induction of ERE-luciferase
Tff1 mRNA induction in T47D cells (Tff1 mRNA in T47D cells): no Tff1 activity

Reference: PMC3709979 (PLoS ONE, 2013)
